{
  "source": "patent EP0640130B1",
  "about": "“CHIMERIC M[…] ANALOGUES AND METHODS OF USE THEREOF” (CREATIVE BIOMOLECULES, INC., priority 1992, dated 1993)",
  "origin": "cited, not measured here",
  "target": "26-10 sFv (anti-digoxin single-chain Fv)",
  "data": [
    {"smiles": "C[C@@H]1O[C@@H](O[C@H]2C[C@@H](O)[C@]3(CO)[C@H]4[C@H](O)C[C@]5(C)[C@@H](C6=CC(=O)OC6)CC[C@]5(O)[C@@H]4CC[C@]3(O)C2)[C@H](O)[C@H](O)[C@H]1O", "note": "[Ouabain]", "values": [
      {"measurement": "Ka for association with 26-10 sFv", "result": "about 10^7 M^-1"}
    ]}
  ]
}
